In patent US20170037028A1 (BAYER PHARMA AKTIENGESELLSCHAFT, priority 2013, published 2017):

These molecules were tested against T1, GLUT1 (Homo sapiens, UniProt P11166) (assay: Indirect measurement of GLUT1 activity by quantification of intracellular ATP levels (glucose induced ATP increase)). Conditions: read-out: IC50 regarding glucose induced ATP increase (GLUT1 inhibition).
T1 sequence (P11166 1-492): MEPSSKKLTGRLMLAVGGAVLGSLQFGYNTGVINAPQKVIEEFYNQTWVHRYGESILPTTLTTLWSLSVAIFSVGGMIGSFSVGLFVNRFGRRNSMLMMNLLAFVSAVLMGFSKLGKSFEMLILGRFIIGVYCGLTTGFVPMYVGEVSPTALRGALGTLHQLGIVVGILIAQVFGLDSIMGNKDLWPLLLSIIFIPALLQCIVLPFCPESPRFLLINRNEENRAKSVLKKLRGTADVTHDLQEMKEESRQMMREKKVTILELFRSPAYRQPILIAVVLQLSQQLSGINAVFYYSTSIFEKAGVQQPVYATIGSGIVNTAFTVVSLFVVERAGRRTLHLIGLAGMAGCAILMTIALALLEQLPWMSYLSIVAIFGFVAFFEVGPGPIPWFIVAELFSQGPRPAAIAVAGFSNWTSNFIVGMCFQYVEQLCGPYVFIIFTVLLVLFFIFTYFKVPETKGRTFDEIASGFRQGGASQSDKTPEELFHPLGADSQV
Type: cell-based
Design: endogenous in cells; host or cells: DLD1 or CHO-K1
How it was run: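 DLD1 or CHO-K1 cells were starved overnight in glucose-free medium with 1% FCS, then combined with an oxidative phosphorylation inhibitor. GLUT1 activity was read as glucose-induced ATP increase, GLUT2 as fructose-induced. Intracellular ATP was quantified by CellTiter-Glo luminescence.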

Row | IC50 | SMILES
1 | 31.7 nM | Cc1cc(C(=O)Nc2c(C)nn(Cc3ccc(F)cc3)c2C)c2cc(Br)ccc2n1 [Example 43, 6-bromo-N-[1-(4-fluorobenzyl)-3,5-dimethyl-1H-pyrazol-4-yl]-2-methylquinoline-4-carboxamide]
2 | 3 nM | Cc1c(NC(=O)c2cc(C(N)=O)nc3cc(F)c(Cl)cc23)c(C(F)(F)F)nn1Cc1ccc(CC(F)(F)F)cc1 [Example 1716]
3 | 237 nM | COc1cc(C(=O)Nc2c(C)nn(CCc3ccc(F)cc3)c2C)c2ccccc2n1 [Example 1181]
4 | 160 nM | Cc1nn(Cc2ccc(C(=O)NCC3(C)COC3)cn2)c(C)c1NC(=O)c1cc(C(F)(F)F)nc2ccc(Br)cc12 [Example 1159]
5 | 0.6 nM | Cc1c(NC(=O)c2cc(C(N)=O)nc3ccc(Cl)cc23)c(C(F)(F)F)nn1Cc1ccc(C#N)cc1 [Example 248, 6-chloro-N^4-[1-(4-cyanobenzyl)-5-methyl-3-(trifluoromethyl)-1H-pyrazol-4-yl]quinoline-2,4-dicarboxamide]
6 | 1.7 nM | Cc1ccc2nc(C(N)=O)cc(C(=O)Nc3c(C)nn(Cc4ccc(F)cc4)c3C)c2c1 [Example 1377]
7 | 49.6 nM | Cc1nn(Cc2ccc(C(=O)NCCn3cccn3)cc2)c(C)c1NC(=O)c1cc(C(F)(F)F)nc2ccc(Br)cc12 [Example 1106]
8 | 292 nM | Cc1nn(Cc2cccc(OC(F)(F)F)c2)c(C)c1NC(=O)c1cc(C(F)(F)F)nc2c(Cl)cc(Cl)cc12 [Example 93, 6,8-dichloro-N-{3,5-dimethyl-1-[3-(trifluoromethoxy)benzyl]-1H-pyrazol-4-yl}-2-(trifluoromethyl)quinoline-4-carboxamide]
9 | 1.2 nM | Cc1c(NC(=O)c2cc(C(N)=O)nc3ccc(Br)cc23)c(C(F)(F)F)nn1Cc1ccc(C#N)cn1 [Example 358, 6-bromo-N^4-{1-[(5-cyanopyridin-2-yl)methyl]-5-methyl-3-(trifluoromethyl)-1H-pyrazol-4-yl}quinoline-2,4-dicarboxamide]
10 | 581 nM | Cc1nn(Cc2ccc(C(=O)NCCC(C)O)cc2)c(C)c1NC(=O)c1cc(C(F)(F)F)nc2ccc(Br)cc12 (stereo not shown) [Example 1211]
11 | 17 nM | Cc1nn(Cc2ccc(C#N)nc2)c(C)c1NC(=O)c1cc(C(N)=O)nc2cc(F)ccc12 [Example 292, N^4-{1-[(6-cyanopyridin-3-yl)methyl]-3,5-dimethyl-1H-pyrazol-4-yl}-7-fluoroquinoline-2,4-dicarboxamide]
12 | 35.4 nM | Cc1ccc(Cn2nc(C)c(NC(=O)c3cc(C)nc4ccc(C)cc34)c2C)cc1 [Example 45, N-[3,5-dimethyl-1-(4-methylbenzyl)-1H-pyrazol-4-yl]-2,6-dimethylquinoline-4-carboxamide]
13 | 168 nM | Cc1nn(Cc2cccc(S(C)(=O)=O)c2)c(C)c1NC(=O)c1cc(C(N)=O)nc2cccc(F)c12 [Example 1641]
14 | 4.7 nM | Cc1c(NC(=O)c2cc(C(N)=O)nc3ccccc23)c(C(F)(F)F)nn1Cc1ccc(F)cc1C#N [Example 1659]
15 | 4.1 nM | Cc1nn(Cc2c(F)cc(C#N)cc2F)c(C)c1NC(=O)c1cc(C(N)=O)nc2cccc(F)c12 [Example 393, N^4-[1-(4-cyano-2,6-difluorobenzyl)-3,5-dimethyl-1H-pyrazol-4-yl]-5-fluoroquinoline-2,4-dicarboxamide]
16 | 4.3 nM | Cc1c(NC(=O)c2cc(C(F)(F)F)nc3ccc(Br)cc23)c(C(F)(F)F)nn1Cc1ccc(C#N)cc1F [Example 1358]
17 | 1.5 nM | Cc1c(NC(=O)c2cc(C(N)=O)nc3cccc(F)c23)c(C(F)(F)F)nn1Cc1ccc(CC(F)(F)F)cc1 [Example 1715]
18 | > 13000 nM | CC(C)c1nn(Cc2ccc(F)cc2)c(C(C)C)c1NC(=O)c1cc(C(F)(F)F)nc2cc(F)c(F)cc12 [Example 1357]
19 | > 13000 nM | Cc1ccc2nc(C)cc(C(=O)Nc3c(C(C)C)nn(Cc4ccc(F)cc4)c3C(C)C)c2c1 [Example 1356]
20 | 4 nM | Cc1c(NC(=O)c2cc(C(N)=O)nc3cccc(F)c23)c(C(F)(F)F)nn1Cc1ccc(F)c(F)c1 [Example 1443]
21 | 3.2 nM | Cc1nn(Cc2ncccc2C#N)c(C)c1NC(=O)c1cc(C(N)=O)nc2cc(F)c(Cl)cc12 [Example 1411]
22 | 1090 nM | Cc1c(NC(=O)c2cc(C(N)=O)nc3ccccc23)c(C(F)(F)F)nn1Cc1ccc(C(C)(C)C)cc1 [Example 1370]
23 | 13.9 nM | Cc1c(NC(=O)c2cc(C(N)=O)nc3cc(F)c(Cl)cc23)c(C(F)(F)F)nn1Cc1ccc(C(F)(F)F)cc1 [Example 1589]
24 | 12.7 nM | Cc1nn(Cc2c(F)cccc2F)c(C)c1NC(=O)c1cc(C(F)(F)F)nc2c(Cl)cc(Cl)cc12 [Example 20, 6,8-dichloro-N-[1-(2,6-difluorobenzyl)-3,5-dimethyl-1H-pyrazol-4-yl]-2-(trifluoromethyl)quinoline-4-carboxamide]

Further lines, the molecule ahead of its results:

Row | SMILES | IC50
25 | Cc1nn(Cc2ccc(F)cc2)c(C(N)=O)c1NC(=O)c1cc(C(F)(F)F)nc2ccc(Br)cc12 [Example 1197] | 385 nM
26 | Cc1nn(C(C)c2ccc(F)cc2)c(C)c1NC(=O)c1cc(C(F)(F)F)nc2ccc(Br)cc12 (racemic) [Example 1374] | 42.6 nM
27 | COc1ccc(Cn2nc(C)c(NC(=O)c3cc(C(N)=O)nc4cc(F)c(Cl)cc34)c2C)cc1 [Example 214, 6-chloro-7-fluoro-N^4-[1-(4-methoxybenzyl)-3,5-dimethyl-1H-pyrazol-4-yl]quinoline-2,4-dicarboxamide] | 1.1 nM
28 | Cc1nn(Cc2ccc(C#N)nc2)c(C)c1NC(=O)c1cc(C(N)=O)nc2ccc(Br)cc12 [Example 293, 6-bromo-N^4-{1-[(6-cyanopyridin-3-yl)methyl]-3,5-dimethyl-1H-pyrazol-4-yl}quinoline-2,4-dicarboxamide] | 1 nM
29 | COc1cc(C(=O)Nc2c(C)nn(Cc3cccc(F)c3)c2C)c2ccccc2n1 [Example 87, N-[1-(3-fluorobenzyl)-3,5-dimethyl-1H-pyrazol-4-yl]-2-methoxyquinoline-4-carboxamide] | 267 nM
30 | Cc1cccnc1Cn1nc(C)c(NC(=O)c2cc(C(F)(F)F)nc3ccc(Br)cc23)c1C [Example 116, 6-bromo-N-{3,5-dimethyl-1-[(3-methylpyridin-2-yl)methyl]-1H-pyrazol-4-yl}-2-(trifluoromethyl)quinoline-4-carboxamide] | 889 nM
31 | CC(=O)Nc1ccc2nc(C(F)(F)F)cc(C(=O)Nc3c(C)nn(Cc4ccc(F)cc4)c3C)c2c1 [Example 1169] | 182 nM
32 | Cc1nn(Cc2ccc(C(=O)NCC3CCO3)cn2)c(C)c1NC(=O)c1cc(C(F)(F)F)nc2ccc(Br)cc12 (racemic) [Example 1124] | 72.6 nM
33 | Cc1cc(Cn2nc(C)c(NC(=O)c3cc(C(N)=O)nc4cc(F)ccc34)c2C)no1 [Example 1541] | 15.4 nM
34 | Cc1cc(F)ccc1Cn1nc(C(F)(F)F)c(NC(=O)c2cc(C(N)=O)nc3cccc(F)c23)c1C [Example 1711] | 4.4 nM
35 | COc1cc(C(=O)Nc2c(C(F)(F)F)nn(Cc3ccc(C#N)cc3F)c2C)c2ccccc2n1 [Example 1359] | 22 nM
36 | Cc1nn(Cc2ccc(C(=O)N(C)C)cc2)c(C)c1NC(=O)c1cc(C(N)=O)nc2cc(F)ccc12 [Example 1426] | 80 nM
37 | COc1cccc(Cn2nc(C)c(NC(=O)c3cc(C(N)=O)nc4cc(F)c(Cl)cc34)c2C)c1 [Example 1453] | 1.4 nM
38 | CNC(=O)c1nc(Cn2nc(C)c(NC(=O)c3cc(C(F)(F)F)nc4ccc(Br)cc34)c2C)no1 [Example 404, 6-bromo-N-(3,5-dimethyl-1-{[5-(methylcarbamoyl)-1,2,4-oxadiazol-3-yl]methyl}-1H-pyrazol-4-yl)-2-(trifluoromethyl)quinoline-4-carboxamide] | 1.4 nM
39 | Cc1c(NC(=O)c2cc(C(N)=O)nc3ccccc23)c(C(F)(F)F)nn1Cc1ccc(C(C)O)cc1 (racemic) [Example 1615] | 59.4 nM
40 | Cc1nn(Cc2ccc(C(=O)NC3CCCC3)cc2)c(C)c1NC(=O)c1cc(C(F)(F)F)nc2ccc(Br)cc12 [Example 1182] | 238 nM
41 | Cc1nn(CCc2cccc(F)c2)c(C)c1NC(=O)c1cc(C(N)=O)nc2ccccc12 [Example 1148] | 122 nM
42 | Cc1nn(Cc2ccc(F)cc2)c(C)c1NC(=O)c1cc(C(F)(F)F)nc2c(Cl)cc(Cl)cc12 [Example 25, 6,8-dichloro-N-[1-(4-fluorobenzyl)-3,5-dimethyl-1H-pyrazol-4-yl]-2-(trifluoromethyl)quinoline-4-carboxamide] | 15.7 nM
43 | Cc1c(NC(=O)c2cc(C(N)=O)nc3cc(F)c(Cl)cc23)c(C(F)(F)F)nn1Cc1cc(F)ccc1C#N [Example 1655] | 238 nM
44 | Cc1nn(Cc2ccc(C#N)s2)c(C)c1NC(=O)c1cc(C(N)=O)nc2cc(F)ccc12 [Example 422] | 5 nM
45 | Cc1nn(Cc2ccc(C(=O)N[C@@H](C)CO)cc2)c(C)c1NC(=O)c1cc(C(F)(F)F)nc2ccc(Br)cc12 [Example 1101] | 42.8 nM
46 | Cc1nn(Cc2ccc(C#N)nc2)c(C)c1NC(=O)c1cc(C(F)(F)F)nc2cc(F)c(F)cc12 [Example 183, N-{1-[(6-cyanopyridin-3-yl)methyl]-3,5-dimethyl-1H-pyrazol-4-yl}-6,7-difluoro-2-(trifluoromethyl)quinoline-4-carboxamide] | 107 nM
